Experimental data as given in US11370775B2, “Substituted benzimidazole derivatives as D-amino acid oxidase (DAAO) inhibitors” (NATIONAL TAIWAN UNIVERSITY, priority 2016, dated 2022).

Tests used:
[1] = target: T1, DAO in SK-N-SH neuroblastoma cells (Homo sapiens, UniProt P14920); test: Cell-based DAO assay in SK-N-SH cells; set-up: key to Relative DAO activity normalize to DMSO at Final Conc. 100 uM / Relative DAO activity normalize to DMSO at Final Conc. 10 uM: fraction of DMSO-control DAO activity (1 = DMSO); conditions: SK-N-SH 1.25*10^5 cells/well, drug treated for 3.5 hr; for IC50: 50 mM D-serine
T1 construct: endogenous in cells; host or cells: SK-N-SH neuroblastoma cells (ATCC)
T1 sequence (P14920 whole entry): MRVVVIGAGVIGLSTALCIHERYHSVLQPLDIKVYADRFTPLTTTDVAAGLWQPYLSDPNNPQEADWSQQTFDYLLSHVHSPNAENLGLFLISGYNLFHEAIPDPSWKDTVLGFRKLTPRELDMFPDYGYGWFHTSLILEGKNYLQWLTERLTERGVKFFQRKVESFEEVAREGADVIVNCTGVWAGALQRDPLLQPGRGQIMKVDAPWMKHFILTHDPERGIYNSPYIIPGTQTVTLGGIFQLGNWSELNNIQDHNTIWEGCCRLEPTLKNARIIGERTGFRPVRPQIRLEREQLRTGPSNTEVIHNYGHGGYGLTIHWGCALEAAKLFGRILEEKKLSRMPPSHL
Description: The SK-N-SH neuroblastoma cell line was purchased from American Type Culture Collection (ATCC). It was cultured in MEM media (Invitrogen/GIBCO, Rockville, Md.) supplemented with 10% fetal bovine serum, 1×NEAA (Invitrogen/GIBCO) at 37° C. with 5% CO2 in a humidified atmosphere. Cells were trypsinized and plated into a black 96-well plate (NUNC No. 237108) at a density of 125,000 cells/well in 50 μl before cell-based DAO assay.
The cellular DAO activity assay was using a method modified according to the report of Brandish et al. (Brandish, P. E., et al., A cell-based ultra-high-throughput screening assay for identifying inhibitors of D-amino acid oxidase. J Biomol Screen, 2006. 11(5): p. 481-7). SK-N-SH cells were suspended in assay buffers of HANKS buffer solution (Invitrogen/GIBCO No. 14025-092) with 20 mM HEPES. D-serine of (final concentration 50 mM) was added in each well as the substrate for DAO enzyme. The Amplex Red Hydrogen Peroxide/Proxidase Assay Kit (Molecular Probes/Invitrogen, cat. A22188) was used to measure H2O2 production which diffused across the cell membrane into the assay medium after DAO reaction. After seeding cells into black 96-well plate (Nunc No. 237108, Denmark), 50 μl of SK-N-SH cells (125,000 cells/well) was mixed with 50 μl drug solution (2.5 fold of interesting final concentration) and incubate at 37° C. with 5% CO2 in a humidified atmosphere for 30 minutes. After 30 minutes later, 25 μl of a 5 fold mixture containing D-serine, horseradish peroxidase (HRP), and Amplex Red was added into wells containing 100 μl of cell-drugs mixture and incubated at 37° C. with 5% CO2 in a humidified atmosphere for 3 hours. The final concentration of DMSO is below 1%. The fluorescence signal was then detected in SpectraMax M2e microplate reader (Molecular Devices, USA) with excitation at 544 nm and emission at 590 nm. The optimized assay buffer contained a final concentration of 50 mM D-serine, 0.625 units HRP, and 50 μM Amplex Red in a 125 μl assay volume.

porcine kidney DAO = target: T2, porcine kidney DAO (Sus scrofa, UniProt P00371); test: pkDAO enzymatic assay (porcine kidney DAO IC50 assay); assay type: biochemical; conditions: D-alanine substrate, pH 8.3, 37° C., without FAD
T2 construct: purchased Sigma-Aldrich; host or cells: porcine kidney
T2 sequence (P00371 whole entry): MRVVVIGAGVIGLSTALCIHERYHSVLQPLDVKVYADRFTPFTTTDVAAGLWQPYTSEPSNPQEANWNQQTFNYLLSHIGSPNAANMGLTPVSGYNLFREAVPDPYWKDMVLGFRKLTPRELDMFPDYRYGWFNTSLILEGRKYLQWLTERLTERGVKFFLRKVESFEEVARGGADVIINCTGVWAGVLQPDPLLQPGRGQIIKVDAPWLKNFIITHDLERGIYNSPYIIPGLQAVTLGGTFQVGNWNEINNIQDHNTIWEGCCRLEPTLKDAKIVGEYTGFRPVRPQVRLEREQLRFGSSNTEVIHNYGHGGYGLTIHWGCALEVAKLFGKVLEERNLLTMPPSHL
Description: The DAAO enzymatic activity assay was modified according to the report of Oguri et al (Oguri, S., Screening of d-amino acid oxidase inhibitor by a new multi-assay method. Food chemistry 2007, 100 (2), 616). The DAAO activity was measured by using substrate D-alanine reaction produced hydrogen peroxide (H2O2) to further react with 3-(4-hydroxyphenyl) propionic acid (HPPA). The HPPA were oxidized by H2O2 and peroxidase to become the fluorogenic dimer which was measured to represent the activity of DAAO.
For porcine kidney DAO IC50 assay, the DAO substrate was prepared in 50 mM D-alanine (dissolved in 0.2 M Tris-HCl buffer, pH 8.3). A 100 μl of D-alanine solution was mixed with 4 μl (in 100% dimethyl sulfoxide, DMSO) of different concentrations of candidate compounds shown in tables below ranging from 48.83 μM, 97.66 μM, 195.31 μM, 390.63 μM, 781.25 μM, 1.56 mM, 3.13 mM, 6.25 mM, 12.50 mM, 25.00 mM, and 50.00 mM, with a final DMSO concentration of 0.167% in each reaction concentration. 10 μl of D-alanine and candidate compound mixture was incubated with 220 μl of Reaction Master Mix in black 96 well plate at 37° C. for 5 minutes. The Reaction Master Mix contained 110 μl of 5 U/mL porcine kidney DAO (Sigma-Aldrich, USA) solution (dissolved with 0.2 M Tris-HCl buffer, pH 8.3), 1.1 mL of 15 U/mL peroxidase solution (dissolved with 0.2 M Tris-HCl buffer, pH 8.3), 1.1 mL of 20 mM HPPA solution (dissolved with 0.2 M Tris-HCl buffer, pH 8.3), and 22 ml of 2 M Tris-HCl buffer (pH 8.3) for 110 reaction assays.
Fluorescence intensity (Fs) was measured at 405 nm by irradiation excitation at 320 nm. The higher the DAO enzymatic activity was, the higher the fluorescence intensity. The fluorometric inhibition indicator (Fi) was obtained from the following equation: Fi=(Fs-FDrug)/(FDMSO), where the fluorescent drug blank (FDrug) was measured in the drug mixture solution (using 0.2 M Tris HCl buffer, pH 8.3, without D-alanine). A DMSO blank (FDMSO) was measured under a 100% DMSO solution.
Although FAD is generally included in the reaction mixture in the D-amino acid oxidase assay since it easily dissociates from the holoenzyme, the present method was performed without FAD. The inhibitory effect of DAO inhibitors was compared by using inhibitory concentrations leading to 50% inhibition of DAAO activity (IC50). The IC50 values were calculated by nonlinear regression model using GraphPad Prism, version 5(GraphPad Software, Inc., La Jolla, Calif.).

Relative DAO activity normalize to DMSO at Final Conc. 10 uM [1] | Relative DAO activity normalize to DMSO at Final Conc. 100 uM [1] | IC50 [1] | IC50 (porcine kidney DAO) | SMILES
0.62 | 0.48 | 74.2 µM | 367 µM | COc1c(C)cnc(CSc2nc3cc(C(=O)O)ccc3n2CCC2=CCCCC2)c1C [compound 12083, 1-(2-(cyclohex-1-en-1-yl)ethyl)-2-(((4-methoxy-3,5-dimethylpyridin-2-yl)methyl)thio)-1H-benzo[d]imidazole-5-carboxylic acid]
1.05 | 0.69 | 141 µM | 1.19 µM | COc1c(C)cnc(C[S+]([O-])c2nc3ccc(O)cc3[nH]2)c1C (centres unmarked) [RS-D7, reference compound]
